Measured values published in PubChem BioAssay AID1648 (Sanford-Burnham Center for Chemical Genomics, 2009).
Activity calls are given as the source filed them. The rule behind the calls is not given here.

Molecular target: Serine/threonine-protein kinase mTOR (Homo sapiens) (UniProt P42345)
Test: binders of mTOR FRB domain, biophysical, NMR (AID 1648)
Conditions: NMR binding to FRB domain, chemical shift

Sequence of Serine/threonine-protein kinase mTOR (Homo sapiens) (P42345 2015-2114): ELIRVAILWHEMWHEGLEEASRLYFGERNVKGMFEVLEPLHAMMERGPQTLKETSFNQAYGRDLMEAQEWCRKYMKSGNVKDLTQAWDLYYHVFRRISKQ

With `CC(=O)Nc1nnc(-c2ccco2)o1` the Kd was > 4 mM (inactive).
In the case of `NC(=O)CSc1nnnn1-c1ccccc1`, the Kd is reported as > 4 mM (inactive).
`Nc1cc(=O)[nH]c(=O)n1Cc1ccco1` was tested, and the Kd was > 4 mM (inactive).
For `Nc1nc(-c2ccc(O)cc2)cs1`, the Kd was > 4 mM (inactive).
In the case of `CC(C)(C(N)=O)/[N+]([O-])=C\c1ccccc1`, the Kd is reported as > 4 mM (inactive).
With `COC(=O)c1c(OC)cc2c(c1C)Oc1c(Cl)c(OC(C)=O)c(Cl)c(C)c1C(=O)O2` the Kd was > 4 mM (inactive).
`COc1ccc(O)c(-c2cn[nH]c2-c2cccs2)c1` was tested, and the Kd was > 4 mM (inactive).
For `CCCCC(Nc1n[nH]c(=O)[nH]c1=O)C(=O)O` (stereo not given), the Kd was > 4 mM (inactive).
`Cc1cc(NC(=O)CS(=O)(=O)c2ccccc2)no1` was tested, and the Kd was > 4 mM (inactive).
`c1csc(-c2nnc3ccccn23)c1` was tested, and the Kd was > 4 mM (inactive).
`COc1cccc(OC)c1C(=O)N1CCOCC1` was tested, and the Kd was > 4 mM (inactive).
With `COC(=O)c1ccc2nccnc2c1` the Kd was > 4 mM (inactive).
`CC(=O)Nc1ccn(-c2ccccc2)n1` was tested, and the Kd was > 4 mM (inactive).
For `CCn1cnc2cc(NCc3ccncc3)ccc21`, the Kd was > 4 mM (inactive).
For `COC(=O)[C@@H]1OC(=O)C2OC23[C@@]1(C)CCC1[C@]2(C)C(C[C@H](O)[C@]13C)C(C)(C)[C@H](OC(C)=O)C[C@@H]2OC(C)=O` (stereo not given in full), the Kd was > 4 mM (inactive).
`CCCNC(=O)c1cnc2n(c1=O)CCS2` was tested, and the Kd was > 4 mM (inactive).
In the case of `Cc1cc(Cl)ccc1NC(=O)C(N)=O`, the Kd is reported as > 4 mM (inactive).
With `COc1ccc2c(c1OC)OC[C@@H](c1ccc(OC)c(OC)c1OC)C2` the Kd was > 4 mM (inactive).
`NC(=O)Cn1nc2c3c(cccc3c1=O)-c1ccccc1-2` was tested, and the Kd was > 4 mM (inactive).
In the case of `O=C(O)c1csc(-c2cccnc2)n1`, the Kd is reported as > 4 mM (inactive).
In the case of `CC(C)(C)P(=O)(O)c1ccccc1`, the Kd is reported as > 4 mM (inactive).
In the case of `CC(C)=CCc1c2c(c3occ(-c4ccc(O)c(O)c4)c(=O)c3c1O)C=CC(C)(C)O2`, the Kd is reported as > 4 mM (inactive).
For `Cc1csc(NC(=O)c2ccoc2C)n1`, the Kd was > 4 mM (inactive).
`NCc1ccc(-c2csnn2)cc1` was tested, and the Kd was > 4 mM (inactive).
`O=[N+]([O-])c1cccc2c1nnn2C(CO)OCCO` (stereo not given) was tested, and the Kd was > 4 mM (inactive).
`CNC(=O)c1ccc([N+](=O)[O-])cc1Cl` was tested, and the Kd was > 4 mM (inactive).
With `NCc1ccc(S(=O)(=O)O)cc1` the Kd was > 4 mM (inactive).
With `O=C(C1CCC(C(=O)N2CCCC2)CC1)N1CCCC1` (stereo not given) the Kd was > 4 mM (inactive).
With `Cc1cc(NC(=O)c2ccccc2C(=O)O)no1` the Kd was > 4 mM (inactive).
With `OCc1ccc2nsnc2c1` the Kd was > 4 mM (inactive).
For `CC(CCC(=O)O)[C@H]1CCC2C3C(C[C@H](O)[C@@]21C)[C@@]1(C)CC[C@@H](O)C[C@H]1C[C@H]3O` (stereo not given in full), the Kd was > 4 mM (inactive).
For `Cc1nc2ccc(C(=O)O)cc2nc1C`, the Kd was > 4 mM (inactive).
In the case of `CC(=O)O[C@@H]1CC2C(C)(C)C(=O)C=C[C@]2(C)C2CC[C@@]3(C)[C@H](c4ccoc4)OC(=O)[C@H]4O[C@]43[C@@]21C` (stereo not given in full), the Kd is reported as > 4 mM (inactive).
With `O=C(Nc1ccccc1)Nc1ccccc1` the Kd was > 4 mM (inactive).
With `Cc1cc(=O)n(C(N)=S)[nH]1` the Kd was > 4 mM (inactive).
For `Cn1c(SCC(N)=O)nc2ccccc2c1=O`, the Kd was > 4 mM (inactive).
In the case of `CCCNC(=O)CSc1ncccc1C(=O)O`, the Kd is reported as > 4 mM (inactive).
With `CC(=O)Nc1ccccc1-c1ccccc1NC(C)=O` the Kd was > 4 mM (inactive).
In the case of `OCc1ccc(-n2cncn2)cc1`, the Kd is reported as > 4 mM (inactive).
In the case of `COc1cc(S(=O)(=O)N(C)C)ccc1F`, the Kd is reported as > 4 mM (inactive).
For `CC(C)(O)CC[C@@H](O)[C@](C)(O)C1CC[C@@]2(O)C3=CC(=O)C4C[C@@H](O)[C@@H](O)C[C@]4(C)C3CC[C@]12C` (stereo not given in full), the Kd was > 4 mM (inactive).
For `Cc1nc(-c2ccccc2)sc1C(N)=O`, the Kd was > 4 mM (inactive).
For `COc1ccc(-c2cc(=O)c3c(OC)c(OC)c(OC)c(OC)c3o2)cc1OC`, the Kd was > 4 mM (inactive).
With `O=C(CNC(=O)c1ccc(F)cc1)NC1=NCCS1` the Kd was > 4 mM (inactive).
For `COc1cc2[nH]c(=S)n(C)c(=O)c2cc1OC`, the Kd was > 4 mM (inactive).
With `COc1cccc(/C=C/C(=O)O)c1C(C)C` the Kd was > 4 mM (inactive).
In the case of `O=C(O)c1cc(O)c2c(c1)[C@@H]([C@H]1c3cc(C(=O)O)cc(O)c3C(=O)c3c(O[C@H]4O[C@H](CO)[C@@H](O)[C@H](O)[C@H]4O)cccc31)c1cccc(O[C@H]3O[C@H](CO)[C@@H](O)[C@H](O)[C@H]3O)c1C2=O`, the Kd is reported as > 4 mM (inactive).
`CN1C2C[C@H](OC(=O)[C@H](CO)c3ccccc3)C[C@H]1[C@@H](O)C2` was tested, and the Kd was > 4 mM (inactive).
With `CC(=O)Nc1ccc(S(=O)(=O)NC(N)=O)cc1` the Kd was > 4 mM (inactive).
`N#Cc1cccc(Cn2nnc(-c3ccccc3)n2)c1` was tested, and the Kd was > 4 mM (inactive).
With `Nc1c(/C=C2\C=Nc3ccccc32)c(=O)nc2scnn12` the Kd was > 4 mM (inactive).
For `Cn1ncc(SCc2ccco2)c(Cl)c1=O`, the Kd was > 4 mM (inactive).
`OCc1ccc(-n2ccnc2)cc1` was tested, and the Kd was > 4 mM (inactive).
`Cc1ccc(C(=O)NCCO)c(Cl)c1` was tested, and the Kd was > 4 mM (inactive).
With `Cc1nn(C)c(C)c1NC(=S)NC1CCCC1` the Kd was > 4 mM (inactive).
With `O=C(Nc1ccccc1)Nc1ccccn1` the Kd was > 4 mM (inactive).
With `c1ccc(Cc2nn3c(-c4ccncc4)nnc3s2)cc1` the Kd was > 4 mM (inactive).
For `Cc1occc1C(=O)Nc1nnc(C(F)(F)F)s1`, the Kd was > 4 mM (inactive).
In the case of `COc1cccc(=O)c2c(C)n(C)c(C)c12`, the Kd is reported as > 4 mM (inactive).
In the case of `O=c1n(-c2ccccc2)c(=O)n2n1CCCC2`, the Kd is reported as > 4 mM (inactive).
With `O=C1CC(=O)N(Cc2ccco2)C(=S)N1` the Kd was > 4 mM (inactive).
`Cc1cc(N)n(C2CCOC(C)(C)C2)n1` (stereo not given) was tested, and the Kd was > 4 mM (inactive).
`CC1SC(=NC(=O)c2ccncc2)NC1=O` (stereo not given) was tested, and the Kd was > 4 mM (inactive).
For `O=C(O)c1sccc1-n1cccc1`, the Kd was > 4 mM (inactive).
`COc1cc2c(cc1OC)[C@@H]1C(=O)c3ccc4c(c3O[C@@H]1CO2)C=CC(C)(C)O4` was tested, and the Kd was > 4 mM (inactive).
For `CC(C)n1nnc2cc(C(=O)O)ccc21`, the Kd was > 4 mM (inactive).
For `O=S(=O)(Cc1ccc(Cl)cc1)N1CCCC1`, the Kd was > 4 mM (inactive).
For `Cn1[nH]c2nc3[nH]n(C)c(=O)c3c(-c3ccccc3)c2c1=O`, the Kd was > 4 mM (inactive).
For `Nc1c(C(=O)O)sc2ncccc12`, the Kd was > 4 mM (inactive).
`COC(=O)C(O)[C@@H]1C2(C)C(=O)[C@@H](CC3=C4CC(=O)O[C@@H](c5ccoc5)[C@]4(C)CCC32)[C@H](OC(C)=O)C1(C)C` (stereo not given in full) was tested, and the Kd was > 4 mM (inactive).
`CN1CCN(C(=O)C2CCCNC2)CC1` (stereo not given) was tested, and the Kd was > 4 mM (inactive).
In the case of `CC1(C)CCC(C)(C)c2cc(C(=O)O)ccc21`, the Kd is reported as > 4 mM (inactive).
`Cc1cc(Oc2ccccc2)nc(N)n1` was tested, and the Kd was > 4 mM (inactive).
In the case of `CCOC(=O)c1cnc2n(c1=O)CCS2`, the Kd is reported as > 4 mM (inactive).
In the case of `O=C(Nc1ccc(N2CCOCC2)cc1)C1CC1`, the Kd is reported as > 4 mM (inactive).
With `CC(=O)Oc1c(C)c(C)c2c(c1C)CCC(C)(CCCC(C)CCCC(C)CCCC(C)C)O2` (stereo not given) the Kd was > 4 mM (inactive).
`CC(C)NC(=O)c1cc(=O)n(C)c(=O)n1C` was tested, and the Kd was > 4 mM (inactive).
`CCN1CCC(NC2CCC(O)CC2)CC1` (stereo not given) was tested, and the Kd was > 4 mM (inactive).
For `O=C(CS(=O)(=O)c1ccccc1)N1CCCCCC1`, the Kd was > 4 mM (inactive).
For `O=C(Nc1nnc(-c2ccco2)o1)c1ccc([N+](=O)[O-])o1`, the Kd was > 4 mM (inactive).
